Literature values in patent US20110212474A1, “ABNORMAL ALTERATIONS OF PKC ISOZYMES PROCESSING IN ALZHEIMER'S DISEASE PERIPHERAL CELLS” (BLANCHETTE ROCKEFELLER NEUROSCIENCES INSTITUTE, priority 2009, published 2011).

Legend:
Aβ (1-42) = settings: transgenic mice with human AD genes
PKC = settings: postischemic/hypoxic treatment
PKC-α = settings: non-AD (AC) fibroblasts, nanomolar concentrations of Aβ (1-40)
PKC-γ = settings: AD fibroblasts, Aβ (1-40)

Row | Molecule | effect on Aβ (1-42) levels in the brains (Aβ (1-42)) | effect on ischemia-induced deficits in synaptogenesis, neurotrophic activity, and spatial learning and memory (PKC) | decrease in PKC-α immunoreactivity (PKC-α) [%] | reduction of PKC-γ immunoreactivity (PKC-γ) [%]
1 | CCC/C=C/C=C/C(=O)O[C@H]1/C(=C/C(=O)OC)C[C@H]2C[C@H]([C@@H](C)O)OC(=O)C[C@H](O)C[C@@H]3C[C@H](OC(C)=O)C(C)(C)[C@](O)(C[C@@H]4C/C(=C/C(=O)OC)C[C@H](/C=C/C(C)(C)[C@]1(O)O2)O4)O3 [bryostatin-1] | reduce Aβ (1-42) levels | effectively rescued ischemia-induced deficits |  | 
2 | Aβ (1-40): Aβ peptide, "short form," 40 amino acids in length, from Amyloid Precursor Protein |  |  | 75 | 70
